# Measured values as given in patent US20240400542A1 (University of Virginia Patent Foundation, priority 2021, published 2024).
# What was measured:
# Jurkat proteomes = experiment: In vitro competition of KY-26 labeling, gel-based chemical proteomics; format: binding, human; settings: pretreatment 30 min, 37° C.: ATP 10-0.5 mM, KY-424 1 and 0.5 mM, then KY-26 5 μM
# Protocol: (§1) Briefly, Jurkat cells were grown to 80% confluency and treated with either DMSO or probe at the designated final concentration (KY-26 or XO44, 1,000× stock in serum-free media (SFM)) and incubated at 37° C. with 5% CO2 for 30 min. Cells were harvested and lysed in PBS buffer containing EDTA-free protease inhibitors. Addition of the rhodamine fluorescent tag was accomplished by CuAAC and fluorescently labeled proteins visualized by SDS-PAGE and in-gel fluorescence scanning. For KY-26 and XO44 live cell treated samples, 50 μL aliquots of proteome were used for gel experiments. […]
# (§2) Cell pellets were lysed in PBS buffer (PBS+a protease inhibitor (sold under the tradename PIERCE™, Thermo Fisher Scientific, Waltham, Massachusetts, United States of America), EDTA free) by sonicating 3 times for 1 second×20% amplitude. […] Protein concentrations were measured using the Bio-Rad DC protein assay (Bio-Rad Laboratories, Hercules, California, United States of America), and fractions were diluted to a concentration of 1 mg/mL in PBS. […] 30 μL of each sample were separated by SDS-PAGE and analyzed by in-gel fluorescence scanning for the rhodamine azide tag. […]
# In addition to solution reactivity, activity of KY-26 and XO44 in proteomes was compared using gel-based chemical proteomics. […] Probe-modified proteins were visualized by SDS-PAGE and in-gel fluorescence scanning. […]
# recombinant human CDK2 = recombinant human CDK2 (Homo sapiens, UniProt P24941); experiment: Competition of KY-26 ABP labeling of recombinant CDK2 in HEK293T lysates; format: binding; settings: then 2.5 μM KY-26 30 minutes
# Protocol: Gateway cloning was performed to generate recombinant human CDK2 (containing a FLAG tag) overexpression plasmid (see FIG. 11) and recombinant human CDK2 was overexpressed in HEK293T mammalian cells. KY-26 and TH211 activity-based probe (ABP) labeling of the recombinant human CDK2 was performed. Briefly, recombinant human CDK2 overexpressed HEK293T lysates were incubated […] with various concentrations of TH211 (a broad-spectrum kinase ABP) or KY-26 (a targeted covalent kinase ABP) for 30- and 60-minutes. Western blots confirmed CDK2 overexpression with rabbit anti-FLAG and goat anti-rabbit 650 antibodies for samples incubated with KY-26 or TH211 probes.
# Recombinant human CDK2 overexpressed HEK293T lysates were incubated with KY-424 (1 μM-10 μM) or free ATP (1 μM-10 μM) for 30 minutes at 37° C. Subsequently, samples were incubated with 2.5 μM KY-26 for 30 minutes at 37° C. […] Based on this finding, the study was performed using additional concentrations of KY-424 ([…]) or free ATP (400 μM-10 mM) for 30 minutes at 37° C. Again, samples were then incubated with 2.5 μM KY-26 for 30 minutes at 37° C. […] Lysates from 24- (KY-424 competition) and 48-hour transfections (ATP competition) were used.
# Jurkat cells = experiment: Gel-based chemical proteomics, live cell probe labeling; set-up: species or system human
# Protocol: as §1, with “experiments. For KY-26 lysate labeling, 49 μL aliquots of cell lysate were used for each dose and time point before adding 1 μL of 50× KY-26 stock (5 μM final) and incubated for 30 min at 37° C.” for “experiments.”
# as §2
# [1] = HPLC solution reactivity of probe with p-cresol (tyrosine mimetic); format: physicochemical; settings: UV 254 nm, TMG base, 0° C., longest time point tested 90 min
# Protocol: (§3) Briefly, reaction progress of KY-26 or XO44 with p-cresol or n-butylamine (16.5 μmol, 3.3 eq.) in the presence of TMG base (1,1,3,3-tetramethylguanidine, 1.1 eq) was evaluated by monitoring probe consumption and quantified based on the signal from the caffeine standard using HPLC. Synthetic peptide reactions were conducted by mixing the peptide (Ac-RLNERHYGGLTGLNK-NH2, 50 nmol, 1.0 eq.) with 1.1 eq of TMG. KY-26 (550 nmol, 11.0 eq) was added to the mixture and the reaction was kept at 37° C. until the reaction achieved at least 50% conversion.
# (§4) More particularly, an acetonitrile solution of p-cresol or n-butylamine (16.5 μmol, 3.3 eq.) was mixed with 1.1 eq of TMG. KY-26 or XO44 in ACN:DMF=6:4 (5 μmol, 1.0 eq.) was added to the mixture and the reaction was kept at 0° C. The final molarity for KY-26 or XO44 is 10 mM. Aliquots (50 μl) of the reaction were taken and quenched by adding acetic acid (0.5 M final, 5.0 μmol) and caffeine standard (0.05 M final, 0.5 μmol) at ten-minute intervals for 1.5 hrs. 1.0 μL sample was injected and analyzed by reverse-phase HPLC with mobile phases A (H2O, 0.1% AcOH) and B (CH3CN, 0.1% AcOH) with a gradient of 0-15-85-100% B in 0-0.5-6.5-7 min. UV measurements taken at 254 nm. Reaction progress was evaluated by monitoring KY-26 or XO44 consumption and quantified based on the signal from the caffeine standard. […]
# [2] = HPLC solution reactivity of probe with n-butylamine (lysine mimetic); format: physicochemical; settings: TMG base, 0° C., KY-26 compared with p-cresol
# Protocol: as §3, §4
smiles,measurement,setting,value
"CCCNC(=O)c1cc(Nc2cc(C3CC3)[nH]n2)nc(N2CCN(C(=O)c3ccc(S(=O)(=O)n4cnc(-c5ccccc5)n4)cc3)CC2)n1 [KY-424, 6-((5-cyclopropyl-1H-pyrazol-3-yl)amino)-2-(4-(4-((3-phenyl-1H-1,2,4-triazol-1-yl)sulfonyl)benzoyl)piperazin-1-yl)-N-propylpyrimidine-4-carboxamide]",blockade of KY-26 labeling of proteomes,Jurkat proteomes,concentration-dependent blockade
same,blockade of KY-26 labeling of recombinant human CDK2,"recombinant human CDK2; 40 nM KY-424, 30 minutes at 37° C., HEK293T lysates",approximately 50%
same,competition of KY-26 ABP labeling of recombinant human CDK2,"recombinant human CDK2; KY-424 1 μM-10 μM, 30 minutes at 37° C.",potently competes
"Nc1ncnc2c1ncn2[C@@H]1O[C@H](COP(=O)(O)OP(=O)(O)OP(=O)(O)O)[C@@H](O)[C@H]1O [ATP, adenosine triphosphate, reference compound]",blockade of KY-26 labeling of proteomes,Jurkat proteomes,concentration-dependent blockade
"C#CCNC(=O)c1cc(Nc2cc(C3CC3)[nH]n2)nc(N2CCN(C(=O)c3ccc(S(=O)(=O)n4cnc(-c5ccccc5)n4)cc3)CC2)n1 [KY-26, 6-((5-cyclopropyl-1H-pyrazol-3-yl)amino)-2-(4-(4-((3-phenyl-1H-1,2,4-triazol-1-yl)sulfonyl)benzoyl)piperazin-1-yl)-N-(prop-2-yn-1-yl)pyrimidine-4-carboxamide]","probe labeling in live cells, dependence on concentration and time","Jurkat cells; 2.5-25 μM, 15-120 min",concentration- and time-dependent probe labeling
same,"proteome reactivity, in-gel fluorescence intensity compared with XO44","Jurkat cells; live Jurkat cells, 5 μM, 30 min, 37° C.",substantially increased reactivity
same,time to near-complete depletion of probe in reaction with p-cresol,[1],≤ 20 min
same,reaction of probe with n-butylamine,[2],reduced activity
